Results reported in patent US6191153A, “Use of 2-amino-6-n-propyl-amino-4,5,6,7-tetrahydrobenzothiazole as a pharmaceutical composition having an antidepressant activity” (Boehringer Ingelheim KG, priority 1992, dated 2001).

Assays:
rats = assay: Forced swimming test (immobility time, antidepressant activity); assay type: in vivo; settings: parenteral, eight rats
Experimental: Details of this behavioural test are described for example by Willner, Psychopharmacology 83, 1-16 (1984) and by Borsini and Meli, Psychopharmacology 94, 147-160 (1988).
Pramipexol (SND 919) was investigated on eight rats, by comparison with amineptine, a known antidepressant. Both substances were dissolved in physiological saline solution and administered by parenteral route.

[1] = in vivo
[2] = in vivo; remark: listed apart in the source

Row | SMILES | Immobility time (rats; dose 20.00 mg/kg) | tolerability [1] | bioavailability [2] | half-life [2] | Immobility time (rats; dose 0.03 mg/kg) | Immobility time (rats; dose 0.10 mg/kg) | Immobility time (rats; dose 0.30 mg/kg)
1 | O=C(O)CCCCCCNC1c2ccccc2CCc2ccccc21 [Amineptine, reference compound] | 134 ± 19 s |  |  |  |  |  | 
2 | CCCN[C@H]1CCc2nc(N)sc2C1 [SND 919, 2-amino-6-n-propyl-amino-4,5,6,7-tetrahydrobenzothiazole] |  | extremely well tolerated | > 80% | 12.5 h | 210 ± 14 s | 165 ± 6 s | 102 ± 17 s
